Data: patent US8772503B2, “Processes for the preparation of deferasirox, and deferasirox polymorphs” (Mapi Pharma Ltd., priority 2009, dated 2014)
Each block holds one compound with its values, some of them ahead of it.

Test: Heating/drying of the solid form, rechecked by XRPD and DSC
Assay type: physicochemical
Details: for Solid form after heating (XRPD, DSC): heated to 160° C. under vacuum, 5 minutes
Experimental: Details of XRPD method used in the tests are mentioned below:
Details of DSC method used in the tests are mentioned below:
Heat from 30° C. to 350° C. at 10° C./min
Form II was further dried by heating (e.g. 60° C. for 1 h) after being checked by XRPD, DSC, TGA and NMR. The XRPD and DSC of Form II were rechecked following the dehydration process.
Form III was further dried at 120° C. after being checked by XRPD, DSC, TGA and NMR. The XRPD and DSC were rechecked.
Amorphous deferasirox was heated to 160° C. under vacuum and kept at this temperature for 5 min. The formed crystal was rechecked by XRPD and DSC.

Solid form after heating/drying (XRPD, DSC) (dried at 120° C. for 1 hr, vacuum): converted to Form I
SMILES: O=C(O)c1ccc(-n2nc(-c3ccccc3O)nc2-c2ccccc2O)cc1 [Form V, 4-[3,5-Bis(2-hydroxyphenyl)-1H-1,2,4-triazol-1-yl]benzoic acid]

Solid form after heating (XRPD, DSC): converted to Form I
Solid form after heating (XRPD, DSC) (listed as Amorphous): transformed into Form I
SMILES: O=C(O)c1ccc(-n2nc(-c3ccccc3O)nc2-c2ccccc2O)cc1 [amorphous deferasirox, 4-[3,5-Bis(2-hydroxyphenyl)-1H-1,2,4-triazol-1-yl]benzoic acid]

Solid form after heating/drying (XRPD, DSC) (heated to 60° C. for 1 hr): converted to Form I
SMILES: O=C(O)c1ccc(-n2nc(-c3ccccc3O)nc2-c2ccccc2O)cc1 [Form II, 4-[3,5-Bis(2-hydroxyphenyl)-1H-1,2,4-triazol-1-yl]benzoic acid]
